In EP0745595A1, “3-(3-Aryloxyphenyl)-1-(substituted methyl)-s-triazine-2,4,6-oxo or thiotrione herbicidal agents” (American Cyanamid Company, priority 1995, dated 1996):

Key:
Assay type in all cases: in vivo
[1] = system: ABUTILON THEOPHRASTI, MEDIC.; test: Postemergence herbicidal evaluation, ABUTH (Velvetleaf); conditions: for ABUTH, herbicide rating (0-9): rated four to five weeks after treatment, averaged
Procedure: (§1) In the tests, seedling plants are grown in jiffy flats for about two weeks. The test compounds are dispersed in 50/50 acetone/water mixtures containing 0.5% TWEEN®20, a polyoxyethylene sorbitan monolaurate surfactant of Atlas Chemical Industries, […] to the plants through a spray nozzle operating at 40 psi for a predetermined time. After spraying, the plants are placed on greenhouse benches and are cared for in the usual manner, commensurate with conventional greenhouse practices. From four to five weeks after treatment, the seedling plants are examined and rated according to the rating system set forth below. Where more than one test is involved for a given compound, the data are averaged.
(§2) Plant species employed in these evaluations are reported by header abbreviation, common name and scientific name.
(§3) Results of herbicide evaluation are expressed on a rating scale (0-9). The scale is based upon a visual observation of plant stand, vigor, malformation, size, chlorosis and overall plant appearance as compared with a control.

[2] = system: AMBROSIA ARTEMISIIFOLIA, L.; test: Postemergence herbicidal evaluation, AMBEL (Ragweed, Common)
Procedure: as §1, §2, §3

CHENOPODIUM ALBUM, L. [3] = test: Postemergence herbicidal evaluation, CHEAL (Lambsquarters, Common); conditions: for CHEAL, herbicide rating (0-9): rated four to five weeks after treatment, averaged
Procedure: as §1, §2, §3

IPOMOEA SPP. = test: Postemergence herbicidal evaluation, IPOSS (Morningglory spp.); conditions: for IPOSS, herbicide rating (0-9): rated four to five weeks after treatment, averaged
Procedure: as §1, §2, §3

[4] = system: ECHINOCHLOA CRUS-GALLI, (L) BEAU; test: Postemergence herbicidal evaluation, ECHCG (Barnyardgrass); set-up: key to ECHCG rating / Herbicidal effect rating, ECHCG / ECHCG: 0-9 visual rating scale vs untreated control
Procedure: (§4) In the tests, seedling plants are grown in jiffy flats for about two weeks. The test compounds are dispersed in 50/50 acetone/water mixtures containing 0.5% TWEEN®20, a polyoxyethylene sorbitan monolaurate surfactant of Atlas Chemical Industries, in sufficient quantities to provide the equivalent of about 0.125 kg to 0.500 kg per hectare of active compound when applied to the plants through a spray nozzle operating at 40 psi for a predetermined time. After spraying, the plants are placed on greenhouse benches and are cared for in the usual manner, commensurate with conventional greenhouse practices. From four to five weeks after treatment, the seedling plants are examined and rated according to the rating system set forth below. Where more than one test is involved for a given compound, the data are averaged.
as §2, §3

[5] = system: SETARIA VIRIDIS, (L) BEAU; test: Postemergence herbicidal evaluation, SETVI (Foxtail, Green); set-up: key to SETVI rating / Herbicidal effect rating, SETVI / SETVI: 0-9 visual rating scale vs untreated control
Procedure: as §4, §2, §3

[6] = system: GLYCINE MAX(L) MERR. CV. WILLIAMS; test: Postemergence herbicidal evaluation, GLXMAW (Soybean, Williams); set-up: key to GLXMAW rating / Herbicidal effect rating, GLXMAW / GLXMAW: 0-9 visual rating scale vs untreated control
Procedure: as §4, §2, §3

ZEA MAYS L. = test: Postemergence herbicidal evaluation, ZEAMX (Corn, Field)
Procedure: as §1, §2, §3

CHENOPODIUM ALBUM, L. [7] = test: Preemergence herbicidal evaluation, CHEAL (Lambsquarters, Common);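 further: higher means more injury with 8 approaching complete kill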
Description: as §3
The preemergence herbicidal activity of the test compounds of the present invention is exemplified by the following tests in which the seeds of a variety of monocotyledonous and dicotyledonous plants are separately mixed with potting soil and planted on top of approximately one inch of soil in separate pint cups. […] The treated cups are then placed on greenhouse benches, watered and cared for in accordance with conventional greenhouse procedures. From four to five weeks after treatment, the tests are terminated and each cup is examined and rated according to the rating system provided in Example 40.
The compounds evaluated are reported by compound number given in Example 40.

CASSIA OBTUSIFOLIA, L. = test: Postemergence herbicidal evaluation, CASOB (Sicklepod); conditions: rated four to five weeks after treatment, averaged
Procedure: as §4, §2, §3

GALIUM APARINE = test: Postemergence herbicidal evaluation, GALAP (Galium); conditions: rated four to five weeks after treatment, averaged
Procedure: as §4, §2, §3

[8] = system: ECHINOCHLOA ORYZOIDES (ARD.)FRITSCH; test: Preemergence weed control under flooded paddy conditions, ECHORC (Watergrass (Calif.)); conditions: preemergence, 3-4 weeks after treatment
Procedure: as §3
Preemergence herbicidal activity under flooded paddy conditions is determined as follows: plant seeds or propagating organs are planted in the top 0.5 cm of silt loam soil in 32 oz. plastic containers with a diameter of 10.5 cm and no drainage holes. Water is added to these containers and maintained at 1.5 to 3 cm above the soil surface for the duration of the experiment. […] The treated containers are placed on greenhouse benches and cared for according to normal greenhouse procedures.- Three to four weeks after treatment the test is terminated and each container is examined and herbicidal effect rated according to the rating system provided in Example 40. The compounds evaluated are reported by compound number given in Example 40.
(§5) Plant species employed in this example are reported by header abbreviation, common name and scientific name.

[…], PRESL. = Preemergence weed control under flooded paddy conditions, MOOVA (Monochoria); conditions: preemergence, 3-4 weeks after treatment
Procedure: as §3
Preemergence herbicidal activity under flooded paddy conditions is determined as follows: plant seeds or propagating organs are planted in the top 0.5 cm of silt loam soil in 32 oz. plastic containers with a diameter of 10.5 cm and no drainage holes. Water is added to these containers and maintained at 1.5 to 3 cm above the soil surface for the duration of the experiment. The test compounds are applied as aqueous/acetone mixtures 50/50 v/v pipetted directly into the flood water to give the equivalent of about 0.5, 0.25, 0.125 and 0.063 kg/ha of active ingredient. The treated containers are placed on greenhouse benches and cared for according to normal greenhouse procedures.- Three to four weeks after treatment the test is terminated and each container is examined and herbicidal effect rated according to the rating system provided in Example 40. The compounds evaluated are reported by compound number given in Example 40.
as §5

[9] = system: ORYZA SATIVA, L. TEBONNET; test: Rice tolerance to post-transplant applications under flooded paddy conditions, ORYSAT (Rice, Tebonnet); conditions: post-transplant rice, 3-4 weeks after treatment
Procedure: as §3
The tolerance of transplanted rice to post-transplanted herbicide applications is determined as follows: two ten-day-old rice seedlings (CV. Tebonnet) are transplanted into a silt loam soil in 32 oz. plastic containers with a diameter of 10.5 cm and no drainage holes. After transplanting the containers are flooded and the water level is maintained at 1.5 to 3 cm above the soil surface. […] The treated containers are placed on greenhouse benches, watered such that the water level is maintained as stated above, and cared for according to normal greenhouse procedures. Three to four weeks after treatment the test is terminated and each container is examined and herbicidal effect rated according to the rating system provided in Example 40. The compounds evaluated are reported by compound number given in Example 40.
as §5

Cn1c(=O)[nH]c(=O)n(-c2cc(Oc3c(F)cc(C(F)(F)F)cc3Cl)ccc2Br)c1=O [A, reference compound]
9.0: Herbicidal effect rating, ABUTH ([1]; 0.500 kg/ha) | Herbicidal effect rating, CHEAL (CHENOPODIUM ALBUM, L. [3]; 0.063 kg/ha) | Herbicidal effect rating, CHEAL (CHENOPODIUM ALBUM, L. [3]; 0.125 kg/ha) | Herbicidal effect rating, CHEAL (CHENOPODIUM ALBUM, L. [3]; 0.250 kg/ha) | Herbicidal effect rating, CHEAL (CHENOPODIUM ALBUM, L. [3]; 0.500 kg/ha) | Herbicidal effect rating, IPOSS (IPOMOEA SPP.; 0.250 kg/ha) | Herbicidal effect rating, IPOSS (IPOMOEA SPP.; 0.500 kg/ha) | CHEAL (CHENOPODIUM ALBUM, L. [7]; Rate 0.063 kg/ha) | CHEAL (CHENOPODIUM ALBUM, L. [7]; Rate 0.125 kg/ha) | CHEAL (CHENOPODIUM ALBUM, L. [7]; Rate 0.250 kg/ha) | CHEAL (CHENOPODIUM ALBUM, L. [7]; Rate 0.500 kg/ha)
0.0: Herbicidal effect rating, ECHCG ([4]; 0.063 kg/ha) | Herbicidal effect rating, ECHCG ([4]; 0.125 kg/ha) | Herbicidal effect rating, SETVI ([5]; 0.063 kg/ha) | Herbicidal effect rating, ZEAMX (ZEA MAYS L.; 0.063 kg/ha) | Herbicidal effect rating, ZEAMX (ZEA MAYS L.; 0.125 kg/ha) | Herbicidal effect rating, ZEAMX (ZEA MAYS L.; 0.250 kg/ha)
7.0: Herbicidal effect rating, IPOSS (IPOMOEA SPP.; 0.125 kg/ha)
1.0: Herbicidal effect rating, AMBEL ([2]; 0.063 kg/ha)
5.0: Herbicidal effect rating, ABUTH ([1]; 0.063 kg/ha) | Herbicidal effect rating, AMBEL ([2]; 0.500 kg/ha) | Herbicidal effect rating, SETVI ([5]; 0.500 kg/ha) | Herbicidal effect rating, GLXMAW ([6]; 0.500 kg/ha)
2.0: Herbicidal effect rating, AMBEL ([2]; 0.125 kg/ha) | Herbicidal effect rating, ECHCG ([4]; 0.250 kg/ha) | Herbicidal effect rating, ECHCG ([4]; 0.500 kg/ha) | Herbicidal effect rating, SETVI ([5]; 0.125 kg/ha) | Herbicidal effect rating, SETVI ([5]; 0.250 kg/ha) | Herbicidal effect rating, GLXMAW ([6]; 0.063 kg/ha) | Herbicidal effect rating, ZEAMX (ZEA MAYS L.; 0.500 kg/ha)
6.0: Herbicidal effect rating, ABUTH ([1]; 0.125 kg/ha) | Herbicidal effect rating, ABUTH ([1]; 0.250 kg/ha) | Herbicidal effect rating, IPOSS (IPOMOEA SPP.; 0.063 kg/ha)
3.0: Herbicidal effect rating, GLXMAW ([6]; 0.125 kg/ha) | Herbicidal effect rating, GLXMAW ([6]; 0.250 kg/ha)

COC(=O)Cn1c(=O)n(C)c(=O)n(-c2cc(Oc3ccc(Cl)cc3Cl)ccc2[N+](=O)[O-])c1=O [Compound 18, Methyl 3-[5-(2,4-dichlorophenoxy)-2-nitrophenyl]tetrahydro-5-methyl-2,4,6-trioxo-s-trizine-1(2H)-acetate]
2.0: Herbicidal effect rating, ORYSAT ([9]; 0.063 kg/ha)
3.0: Herbicidal effect rating, ORYSAT ([9]; 0.125 kg/ha) | Herbicidal effect rating, ORYSAT ([9]; 0.250 kg/ha)
4.0: Herbicidal effect rating, ORYSAT ([9]; 0.500 kg/ha)
9.0: ABUTH, herbicide rating (0-9) ([1]; Rate 0.125 kg/ha) | ABUTH, herbicide rating (0-9) ([1]; Rate 0.250 kg/ha) | ABUTH, herbicide rating (0-9) ([1]; Rate 0.500 kg/ha) | CASOB, herbicide rating (0-9) (CASSIA OBTUSIFOLIA, L.; Rate 0.125 kg/ha) | CASOB, herbicide rating (0-9) (CASSIA OBTUSIFOLIA, L.; Rate 0.250 kg/ha) | CASOB, herbicide rating (0-9) (CASSIA OBTUSIFOLIA, L.; Rate 0.500 kg/ha) | CHEAL, herbicide rating (0-9) (CHENOPODIUM ALBUM, L. [3]; Rate 0.125 kg/ha) | CHEAL, herbicide rating (0-9) (CHENOPODIUM ALBUM, L. [3]; Rate 0.250 kg/ha) | CHEAL, herbicide rating (0-9) (CHENOPODIUM ALBUM, L. [3]; Rate 0.500 kg/ha) | IPOSS, herbicide rating (0-9) (IPOMOEA SPP.; Rate 0.125 kg/ha) | IPOSS, herbicide rating (0-9) (IPOMOEA SPP.; Rate 0.250 kg/ha) | IPOSS, herbicide rating (0-9) (IPOMOEA SPP.; Rate 0.500 kg/ha) | GALAP, herbicide rating (0-9) (GALIUM APARINE; Rate 0.125 kg/ha) | GALAP, herbicide rating (0-9) (GALIUM APARINE; Rate 0.250 kg/ha) | GALAP, herbicide rating (0-9) (GALIUM APARINE; Rate 0.500 kg/ha) | Herbicidal effect rating, ECHORC ([8]; 0.063 kg/ha) | Herbicidal effect rating, ECHORC ([8]; 0.125 kg/ha) | Herbicidal effect rating, ECHORC ([8]; 0.250 kg/ha) | Herbicidal effect rating, ECHORC ([8]; 0.500 kg/ha) | Herbicidal effect rating, MOOVA ([…], PRESL.; 0.063 kg/ha) | Herbicidal effect rating, MOOVA ([…], PRESL.; 0.125 kg/ha) | Herbicidal effect rating, MOOVA ([…], PRESL.; 0.250 kg/ha) | Herbicidal effect rating, MOOVA ([…], PRESL.; 0.500 kg/ha)
